Where only a bound is given, the exact number is not on record here.

IC50 data for 27 molecules are collected here from patent US9777000B2, “Pyrazole derivative” (MOCHIDA PHARMACEUTICAL CO., LTD., priority 2013, dated 2017).

In the assay the target is human PDE10 (Homo sapiens (Human), UniProt Q9Y233). The assay can be described thus: Evaluation of enzyme inhibitory activity: human PDE10 inhibitory effect (IMAP TR-FRET). The class given is biochemical. The note with it: cAMP substrate. The method, then: (Evaluation of Enzyme Inhibitory Activity: Human PDE10 Inhibitory Effect)
Sequence of human PDE10 (Q9Y233 whole entry): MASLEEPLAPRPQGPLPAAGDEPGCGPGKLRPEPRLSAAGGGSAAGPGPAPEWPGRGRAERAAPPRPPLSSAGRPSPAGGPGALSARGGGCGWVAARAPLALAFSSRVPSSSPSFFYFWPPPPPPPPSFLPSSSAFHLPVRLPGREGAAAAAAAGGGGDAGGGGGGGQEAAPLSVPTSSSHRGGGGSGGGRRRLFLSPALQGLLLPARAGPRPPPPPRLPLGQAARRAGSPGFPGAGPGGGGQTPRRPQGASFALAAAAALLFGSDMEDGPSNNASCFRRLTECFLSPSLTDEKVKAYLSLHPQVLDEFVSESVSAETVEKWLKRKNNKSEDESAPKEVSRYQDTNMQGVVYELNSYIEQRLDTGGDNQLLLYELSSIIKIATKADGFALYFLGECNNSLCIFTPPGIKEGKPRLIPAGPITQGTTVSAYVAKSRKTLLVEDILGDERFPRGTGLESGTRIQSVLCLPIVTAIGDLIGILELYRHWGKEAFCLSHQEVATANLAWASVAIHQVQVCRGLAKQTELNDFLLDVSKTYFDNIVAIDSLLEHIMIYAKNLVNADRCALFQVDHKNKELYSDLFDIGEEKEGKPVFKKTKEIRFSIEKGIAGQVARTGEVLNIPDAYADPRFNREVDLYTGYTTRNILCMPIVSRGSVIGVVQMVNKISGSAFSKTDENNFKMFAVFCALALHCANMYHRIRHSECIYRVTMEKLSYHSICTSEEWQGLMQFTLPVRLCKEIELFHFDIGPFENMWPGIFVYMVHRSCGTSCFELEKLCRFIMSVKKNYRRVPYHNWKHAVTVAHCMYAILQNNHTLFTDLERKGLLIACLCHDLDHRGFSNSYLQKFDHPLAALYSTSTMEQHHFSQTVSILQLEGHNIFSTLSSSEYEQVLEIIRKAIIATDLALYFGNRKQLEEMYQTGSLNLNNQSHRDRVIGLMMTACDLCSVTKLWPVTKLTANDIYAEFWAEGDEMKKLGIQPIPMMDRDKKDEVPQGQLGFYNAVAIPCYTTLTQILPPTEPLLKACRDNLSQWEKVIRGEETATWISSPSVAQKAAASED
IMAP TR-FRET Phosphodiersterase Evaluation Assay Kit (Molecular Device) was used for the measurement. Ten μL of a diluted test compound having each concentration and 5 μL of the enzyme PDE10 (BPA Bioscience) that had been diluted to 2 ng/mL with 1×IMAP Reaction Buffer (prepared with 5×included with the kit, 10 mM Tris-HCl, pH=7.2, 10 mM MgCl2, 0.05% NaN3, and 0.1% BSA) containing 0.1% BSA were added to a 384-well plate (Corning). The obtained mixture was then pre-incubated at room temperature for 5 minutes. Thereafter, 5 μL of cAMP substrate solution which was included with the kit and diluted to 400 nM with 1×IMAP Reaction Buffer containing 0.1% BSA, was added to the reaction solution, and the obtained mixture was reacted at room temperature for 60 minutes. Thereafter, 60 μL of an IMAP TR-FRET Binding solution included with the kit was further added to the reaction solution, and the obtained mixture was then left for 3 hours or more. Subsequently, using ARVO SX (PerkinElmer), the fluorescent intensity of Terbium (Emission=490 nm) and TR-FRET (Emission=520 nm) in the reaction solution were measured at an excitation wavelength of 340 nm, so as to calculate the amount of the generated 5′-AMP. The count of a well to which a solvent had been added instead of the test compound was set at 0%, and the count of a well to which the enzyme PDE10 had not been added was set at 100%. Thus, the inhibitory activity of each test compound was calculated.
The PDE10 inhibitory activity of the test compound was indicated with an IC50 value. […] The test compounds are shown in Table 3 (Table 3-1 and Table 3-2).
As usually defined, the IC50 is the concentration needed to halve the response being measured. Read a high IC50 as a need for much substance. Molecule `COc1ccnc(-c2cnn(C)c2C(=O)Nc2ccn3nc(N4CC[C@H](F)C4)nc3c2)c1` [Example 4.18, (S)-N-(2-(3-fluoropyrrolidin-1-yl)-[1,2,4]triazolo[1,5-a]pyridin-7-yl)-4-(4-methoxypyridin-2-yl)-1-methyl-1H-pyrazole-5-carboxamide] showed an IC50 of less than 5 nM. The result for `Cc1nccnc1-c1cnn(C)c1C(=O)Nc1cc2nc(-c3ccccc3)nn2cc1F` [Example 3.32, N-(6-fluoro-2-phenyl-[1,2,4]triazolo[1,5-a]pyridin-7-yl)-1-methyl-4-(3-methylpyrazin-2-yl)-1H-pyrazole-5-carboxamide] reads less than 5 nM; that for `Cc1cc(C)nc(-c2cnn(C)c2C(=O)Nc2cc3nc(-c4ccccc4)nn3cc2F)n1` [Example 3.44, 4-(4,6-dimethylpyrimidin-2-yl)-N-(6-fluoro-2-phenyl-[1,2,4]triazolo[1,5-a]pyridin-7-yl)-1-methyl-1H-pyrazole-5-carboxamide], less than 5 nM; that for `Cn1ncc(-c2ncccc2C#N)c1C(=O)Nc1cc2nc(-c3ccccc3)nn2cc1F` [Example 3.13, 4-(3-cyanopyridin-2-yl)-N-(6-fluoro-2-phenyl-[1,2,4]triazolo[1,5-a]pyridin-7-yl)-1-methyl-1H-pyrazole-5-carboxamide], less than 5 nM.

Turning to `C=Cc1sc(-c2cnn(C)c2C(=O)NC2CCn3nc(-c4ccccc4)nc3C2)nc1C(F)F` (stereo not drawn) [Example 5.5, 4-(4-(difluoromethyl)-5-vinylthiazol-2-yl)-1-methyl-N-(2-phenyl-5,6,7,8-tetrahydro-[1,2,4]triazolo[1,5-a]pyridin-7-yl)-1H-pyrazole-5-carboxamide], the concentration for half-maximal inhibition (IC50) was less than 5 nM. As for `Cn1ncc(-c2ccc(F)cn2)c1C(=O)Nc1cc2nc(-c3ccccc3)nn2cc1F` [Example 3.8, N-(6-fluoro-2-phenyl-[1,2,4]triazolo[1,5-a]pyridin-7-yl)-4-(5-fluoropyridin-2-yl)-1-methyl-1H-pyrazole-5-carboxamide], the figure is less than 5 nM. The result for `Cc1cncc(-c2cnn(C)c2C(=O)Nc2cc3nc(-c4ccccc4)nn3cc2F)n1` [Example 3.9, N-(6-fluoro-2-phenyl-[1,2,4]triazolo[1,5-a]pyridin-7-yl)-1-methyl-4-(6-methylpyrazin-2-yl)-1H-pyrazole-5-carboxamide] reads less than 5 nM; that for `Cc1ncc(F)c(-c2cnn(C)c2C(=O)Nc2cc3nc(-c4ccccc4)nn3cc2F)n1` [Example 3.36, 4-(5-fluoro-2-methylpyrimidin-4-yl)-N-(6-fluoro-2-phenyl-[1,2,4]triazolo[1,5-a]pyridin-7-yl)-1-methyl-1H-pyrazole-5-carboxamide], less than 5 nM; that for `Cn1ncc(-c2ccc(C#N)cn2)c1C(=O)Nc1cc2nc(-c3ccccc3)nn2cc1F` [Example 3.23, 4-(5-cyanopyridin-2-yl)-N-(6-fluoro-2-phenyl-[1,2,4]triazolo[1,5-a]pyridin-7-yl)-1-methyl-1H-pyrazole-5-carboxamide], less than 5 nM. Take `Cn1ncc(-c2nc(C(F)(F)F)cs2)c1C(=O)NC1CCn2c(nc(-c3ccccc3)c2F)C1` (stereo not drawn) [Example 2.19, N-(3-fluoro-2-phenyl-5,6,7,8-tetrahydroimidazo[1,2-a]pyridin-7-yl)-1-methyl-4-(4-(trifluoromethyl)thiazol-2-yl)-1H-pyrazole-5-carboxamide]: the IC50 is less than 5 nM. As for `Cc1cnc(-c2cnn(C)c2C(=O)NC2CCn3cc(-c4ccccc4)nc3C2)s1` (stereo not drawn) [Example 2.15, 1-methyl-4-(5-methylthiazol-2-yl)-N-(2-phenyl-5,6,7,8-tetrahydroimidazo[1,2-a]pyridin-7-yl)-1H-pyrazole-5-carboxamide], the figure is less than 5 nM; as for `Cc1sc(-c2cnn(C)c2C(=O)NC2CCn3cc(-c4ccccc4)nc3C2)nc1C(F)F` (stereo not drawn) [Example 2.6, 4-(4-(difluoromethyl)-5-methylthiazol-2-yl)-1-methyl-N-(2-phenyl-5,6,7,8-tetrahydroimidazo[1,2-a]pyridin-7-yl)-1H-pyrazole-5-carboxamide], less than 5 nM; as for `Cc1ccnc(-c2cnn(C)c2C(=O)Nc2ccn3nc(N4CC[C@H](F)C4)nc3c2)c1` [Example 4.17, (S)-N-(2-(3-fluoropyrrolidin-1-yl)-[1,2,4]triazolo[1,5-a]pyridin-7-yl)-1-methyl-4-(4-methylpyridin-2-yl)-1H-pyrazole-5-carboxamide], less than 5 nM. The result for `Cn1ncc(-c2nc(C(F)(F)F)cs2)c1C(=O)Nc1cc2nc(-c3ccccc3)nn2cc1F` [Example 3.6, N-(6-fluoro-2-phenyl-[1,2,4]triazolo[1,5-a]pyridin-7-yl)-1-methyl-4-(4-(trifluoromethyl)thiazol-2-yl)-1H-pyrazole-5-carboxamide] reads less than 5 nM. The result for `Cn1ncc(-c2nc(C(F)F)c(Cl)s2)c1C(=O)NC1CCn2nc(-c3ccccc3)nc2C1` (stereo not drawn) [Example 5.29, 4-(5-chloro-4-(difluoromethyl)thiazol-2-yl)-1-methyl-N-(2-phenyl-5,6,7,8-tetrahydro-[1,2,4]triazolo[1,5-a]pyridin-7-yl)-1H-pyrazole-5-carboxamide] reads less than 5 nM; that for `Cn1ncc(-c2cccc(C(F)(F)F)n2)c1C(=O)Nc1ccn2cc(-c3ccccc3)nc2c1` [Example 1.6, 1-methyl-N-(2-phenylimidazo[1,2-a]pyridin-7-yl)-4-(6-(trifluoromethyl)pyridin-2-yl)-1H-pyrazole-5-carboxamide], less than 5 nM; that for `Cn1ncc(-c2nc(C(F)F)cs2)c1C(=O)NC1CCn2nc(-c3ccccc3)nc2C1` (stereo not drawn) [Example 5.17, 4-(4-(difluoromethyl)thiazol-2-yl)-1-methyl-N-(2-phenyl-5,6,7,8-tetrahydro-[1,2,4]triazolo[1,5-a]pyridin-7-yl)-1H-pyrazole-5-carboxamide], less than 5 nM.

Take `Cc1sc(-c2cnn(C)c2C(=O)Nc2ccn3nc(N4CC[C@H](F)C4)nc3c2)nc1C(F)F` [Example 4.23, (S)-4-(4-(difluoromethyl)-5-methylthiazol-2-yl)-N-(2-(3-fluoropyrrolidin-1-yl)-[1,2,4]triazolo[1,5-a]pyridin-7-yl)-1-methyl-1H-pyrazole-5-carboxamide]: the IC50 is less than 5 nM. As for `Cc1nccc(-c2cnn(C)c2C(=O)Nc2cc3nc(-c4ccccc4)nn3cc2F)n1` [Example 3.25, N-(6-fluoro-2-phenyl-[1,2,4]triazolo[1,5-a]pyridin-7-yl)-1-methyl-4-(2-methylpyrimidin-4-yl)-1H-pyrazole-5-carboxamide], the figure is less than 5 nM; as for `COc1cccc(-c2cnn(C)c2C(=O)NC2CCn3cc(-c4ccccc4)nc3C2)n1` (stereo not drawn) [Example 2.11, 4-(6-methoxypyridin-2-yl)-1-methyl-N-(2-phenyl-5,6,7,8-tetrahydroimidazo[1,2-a]pyridin-7-yl)-1H-pyrazole-5-carboxamide], less than 5 nM. The result for `Cc1csc(-c2cnn(C)c2C(=O)Nc2ccn3cc(-c4ccccc4)nc3c2)n1` [Example 1.2, 1-methyl-4-(4-methylthiazol-2-yl)-N-(2-phenylimidazo[1,2-a]pyridin-7-yl)-1H-pyrazole-5-carboxamide] reads less than 5 nM; that for `Cc1ccc(-c2cnn(C)c2C(=O)Nc2cc3nc(-c4ccccc4)nn3cc2F)nc1` [Example 3.51, N-(6-fluoro-2-phenyl-[1,2,4]triazolo[1,5-a]pyridin-7-yl)-1-methyl-4-(5-methylpyridin-2-yl)-1H-pyrazole-5-carboxamide], less than 5 nM; that for `COc1ncnc(-c2cnn(C)c2C(=O)Nc2cc3nc(-c4ccccc4)nn3cc2F)c1C` [Example 3.31, N-(6-fluoro-2-phenyl-[1,2,4]triazolo[1,5-a]pyridin-7-yl)-4-(6-methoxy-5-methylpyrimidin-4-yl)-1-methyl-1H-pyrazole-5-carboxamide], less than 5 nM. Molecule `COc1ccnc(-c2cnn(C)c2C(=O)Nc2ccn3nc(N4CCC[C@@H]4C)nc3c2)c1` [Example 4.5, (S)-4-(4-methoxypyridin-2-yl)-1-methyl-N-(2-(2-methylpyrrolidin-1-yl)-[1,2,4]triazolo[1,5-a]pyridin-7-yl)-1H-pyrazole-5-carboxamide] displayed an IC50 of less than 5 nM. `COc1ccnc(-c2cnn(C)c2C(=O)Nc2ccn3nc(N4CCCC4)nc3c2)c1` [Example 4.28, 4-(4-methoxypyridin-2-yl)-1-methyl-N-(2-(pyrrolidin-1-yl)-[1,2,4]triazolo[1,5-a]pyridin-7-yl)-1H-pyrazole-5-carboxamide] had an IC50 of less than 5 nM. With `Cc1cc(C)nc(-c2cnn(C)c2C(=O)Nc2cc3nc(-c4ccccc4)nn3cc2F)c1` [Example 3.11, 4-(4,6-dimethylpyridin-2-yl)-N-(6-fluoro-2-phenyl-[1,2,4]triazolo[1,5-a]pyridin-7-yl)-1-methyl-1H-pyrazole-5-carboxamide], the IC50 is less than 5 nM. `Cc1cc(C)nc(-c2cnn(C)c2C(=O)Nc2ccn3nc(N4CCC[C@@H]4C)nc3c2)c1` [Example 4.8, (S)-4-(4,6-dimethylpyridin-2-yl)-1-methyl-N-(2-(2-methylpyrrolidin-1-yl)-[1,2,4]triazolo[1,5-a]pyridin-7-yl)-1H-pyrazole-5-carboxamide]: the IC50 is less than 5 nM.
